What was measured:
C-Raf kinase = target: T1, C-Raf kinase (Homo sapiens, UniProt P04049, Y340D/Y341D); experiment: Biochemical assay for C-Raf.1 (coupled pyruvate kinase/lactate dehydrogenase); conditions: read-out: CRAF.1 IC50
T1 construct: Y340D,; GST (N); purchased Sigma
Outline: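 C-Raf (0.43 nM) with MEK 30.1 nM and 1 mM ATP in Tris pH 7.5/MgCl2 buffer, activity coupled via PK/LDH to NADH oxidation (A340), 6 h at 30° C. Rates from 4–5 h window converted to % inhibition versus controls; IC50 by four-parameter fit, 1% DMSO.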

H2405 cells = experiment: H2405 cell proliferation assay (2), resazurin, 384-well; type: cell-based; conditions: Homo sapiens, NCI-H2405, inhibition of cell proliferation, 67-72 h
Experimental: H2405 Cell Proliferation Assay (2)
H2405 cells (catalog #CRL-5994) are obtained from the American Type Culture Collect (ATTC, Manassas, VA). Briefly, cells were grown in RPMI 1640 supplemented with 5% characterized fetal bovine serum (Invitrogen, Carlsbad, CA) and 1% Penicillin/Streptomycin/L-Glutamine at 37° C., 5% CO2, and 95% humidity. Cells are expanded until reaching 70-95% confluency at which point they are sub-cultured or harvested for assay use. A serial dilution of test compound is dispensed into a 384-well black clear bottom plate in triplicate. Seven hundred fifty cells are added per well in 50 μL complete growth medium in the 384-well plate. Plates are incubated for 67-72 h at 37° C., 5% CO2, and 95% humidity. At the end of the incubation, 10 μL of a 440 μM solution of resazurin (Sigma, St. Louis, MO) in PBS is added to each well of the plate and plates are incubated for an additional 5-6 h at 37° C., 5% CO2, and 95% humidity. Plates are read on a Synergy2 or equivalent reader (Biotek, Winooski VT) using an excitation of 540 nm and an emission of 600 nm. Data is analyzed using Prism software (GraphPad, San Diego, CA) to calculate IC50 values

WM3629 cells = experiment: WM3629 cell proliferation assay (1), resazurin, 96-well; type: cell-based; conditions: inhibition of cell proliferation
Experimental: WM3629 Cell Proliferation Assay (1)
WM3629 cells (#WM3629-01-0001) are obtained from Rockland Immunochemicals Inc (Gilbertsville, PA). Briefly, cells were grown in MCDB 153 medium (Sigma, #M7403, St. Louis, MO) supplemented with 20% Leibovitz's L-15 (ThermoFisher #11415-064, Waltham, MA), 2% heat inactivated fetal bovine serum (ThermoFisher, #A3840001, Waltham, MA), 5 μg/mL Insulin (Bovine Pancreas) (Sigma, #I0516, St. Louis, MO), 1.68 mM Calcium Chloride (Sigma, #C-34006, St. Louis, MO) and 1% Penicillin/Streptomycin/L-Glutamine (ThermoFisher #10378016, Waltham, MA) at 37° C., 5% CO2, and 95% humidity. Cells are expanded until reaching 70-95% confluency at which point they are subcultured or harvested for assay use. A serial dilution of test compound is dispensed into a 96-well black clear bottom plate in triplicate. Four thousand five hundred cells are added per well in 200 μL complete growth medium in the 96-well plate. Plates are incubated for 67-72 hours at 37° C., 5% CO2, and 95% humidity. At the end of the incubation, 40 μL of a 440 μM solution of resazurin (Sigma, #199303, St. Louis, MO) in PBS is added to each well of the plate and plates are incubated for an additional 6-7 hours at 37° C., 5% CO2, and 95% humidity. Plates are read on a Synergy2 or equivalent reader (Biotek, Winooski VT) using an excitation of 540 nm and an emission of 600 nm. Data is analyzed using Prism software (GraphPad, San Diego, CA) to calculate IC50 values.

WM3928 cells = experiment: WM3928 cell proliferation assay (2), resazurin, 384-well; type: cell-based; conditions: inhibition of cell proliferation, 67-72 hours
Experimental: WM3928 Cell Proliferation Assay (2)
WM3928 cells (#WM3928-01-0001) are obtained from Rockland Immunochemicals Inc (Gilbertsville, PA). Briefly, cells were grown in MCDB 153 medium (Sigma, #M7403, St. Louis, MO) supplemented with 20% Leibovitz's L-15 (ThermoFisher #11415-064, Waltham, MA), 2% heat inactivated fetal bovine serum (ThermoFisher, #A3840001, Waltham, MA), 5 μg/mL Insulin (Bovine Pancreas) (Sigma, #I0516, St. Louis, MO), 1.68 mM Calcium Chloride (Sigma, #C-34006, St. Louis, MO) and 1% Penicillin/Streptomycin/L-Glutamine (ThermoFisher #10378016, Waltham, MA) at 37° C., 5% CO2, and 95% humidity. Cells are expanded until reaching 70-95% confluency at which point they are sub-cultured or harvested for assay use. Using the Beckman Coulter Echo 650, a serial dilution of test compound is dispensed into a 384-well black clear bottom plate in triplicate. Seven hundred fifty cells are added per well in 50 μL complete growth medium in the 384-well plate. Plates are incubated for 67-72 hours at 37° C., 5% CO2, and 95% humidity. At the end of the incubation, 10 μL of a 440 μM solution of resazurin (Sigma, #199303, St. Louis, MO) in PBS is added to each well of the plate and plates are incubated for an additional 3-6 hours at 37° C., 5% CO2, and 95% humidity. Plates are read on a Synergy2 or equivalent reader (Biotek, Winooski VT) using an excitation of 540 nm and an emission of 600 nm. Data is analyzed using Prism software (GraphPad, San Diego, CA) to calculate IC50 values.

T1 sequence (P04049 307-648 Y340D/Y341D): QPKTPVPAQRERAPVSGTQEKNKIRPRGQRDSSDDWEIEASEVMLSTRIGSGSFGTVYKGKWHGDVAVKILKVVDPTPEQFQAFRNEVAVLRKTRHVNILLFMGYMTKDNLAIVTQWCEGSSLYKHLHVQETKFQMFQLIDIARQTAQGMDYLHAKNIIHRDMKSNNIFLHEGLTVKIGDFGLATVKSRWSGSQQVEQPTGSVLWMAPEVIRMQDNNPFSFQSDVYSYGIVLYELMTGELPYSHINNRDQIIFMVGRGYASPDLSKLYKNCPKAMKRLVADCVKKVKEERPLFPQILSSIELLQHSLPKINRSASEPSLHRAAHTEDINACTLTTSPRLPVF

| SMILES | IC50 (C-Raf kinase) | IC50 (H2405 cells) | IC50 (WM3629 cells) | IC50 (WM3928 cells) |
| --- | --- | --- | --- | --- |
| COC(=O)Nc1cc(-c2cccc(-c3cc(NC(=O)NCCC(C)(C)OC)c(F)cc3C)c2)ccn1 [Example 85] | ≤ 100 nM | – | – | – |
| Cc1cc(F)c(NC(=O)NCCC2(C)CC2)cc1-c1cc(OCCO)nc(-c2ccnc3[nH]ncc23)c1 [Example 87] | ≤ 100 nM | – | – | – |
| Cc1cc(F)c(NC(=O)N[C@@H]2CC[C@H](F)C2)cc1-c1cc(OCCO)nc(-c2ccnc3[nH]ncc23)c1 [Example 88] | 100 to 500 nM | – | – | – |
| Cc1cc(F)c(NC(=O)NCC[C@@H]2CCO2)cc1-c1cc(OCCO)nc(-c2ccnc3[nH]ncc23)c1 [Example 89] | > 1000 nM | – | – | – |
| COC(C)(C)CCNC(=O)Nc1cc(-c2cc(OCCO)nc(-c3ccnc4[nH]ccc34)c2)c(C)cc1F [Example 90] | ≤ 100 nM | – | – | – |
| COC(C)(C)CCNC(=O)Nc1cc(-c2cc(OCCO)nc(-c3ccnc4[nH]ncc34)c2)c(C)cc1F [Example 91] | ≤ 100 nM | – | – | – |
| Cc1cc(F)c(NC(=O)N2CCC(C)(C#N)CC2)cc1-c1cc(OCCO)nc(-c2ccnc3[nH]ncc23)c1 [Example 92] | 100 to 500 nM | – | – | – |
| CNC(=O)c1cc(-c2cc(-c3cc(NC(=O)N4CC[C@H](C(F)(F)F)C4)ccc3C)ccn2)ccn1 [Example 215] | – | 100 to 500 nM | ≤ 100 nM | – |
| CNC(=O)c1cc(-c2cncc(-c3cc(NC(=O)N4CC[C@H](C(F)(F)F)C4)ccc3C)c2)ncn1 [Example 220] | – | – | – | 500 to 1000 nM |
| COC(=O)Nc1cc(-c2cncc(-c3cc(NC(=O)N4CC[C@H](C(F)(F)F)C4)ccc3C)c2)ncn1 [Example 224] | – | ≤ 100 nM | ≤ 100 nM | – |
| CNC(=O)c1cc(-c2cc(-c3cc(NC(=O)N4CC[C@H](C(C)C)C4)ccc3C)ccn2)ccn1 [Example 225] | – | – | ≤ 100 nM | 100 to 500 nM |
| CNC(=O)c1cc(-c2cncc(-c3cc(NC(=O)N4CC[C@H](C(C)C)C4)ccc3C)c2)ncn1 [Example 226] | – | – | – | 100 to 500 nM |
| Cc1ccc(NC(=O)N2CC[C@H](C)C2)cc1-c1cncc(-c2cc(NC(=O)C3CC3)ncn2)c1 [Example 227] | – | 1000 to 10000 nM | – | 100 to 500 nM |
| CNC(=O)c1cc(-c2cncc(-c3cc(NC(=O)N4CC[C@H](C(F)(F)F)C4)ccc3C)c2)ccn1 [Example 228] | – | 100 to 500 nM | – | 100 to 500 nM |
| CNC(=O)c1cc(-c2cncc(-c3cc(NC(=O)N4CC[C@H](C(C)C)C4)ccc3C)c2)ccn1 [Example 229] | – | 500 to 1000 nM | – | 100 to 500 nM |
